Measured values published in patent US5334595A, “Pyrazoloquinolones as anticancer agents” (priority 1992, dated 1994).
Read-outs that look alike come from different tables or passages of the source.

Legend:
human topoisomerase II = target: T1, human topoisomerase II (Homo sapiens, UniProt P11388); assay: Mammalian topoisomerase II inhibition assay (topo II covalently attached to DNA, relative to mAMSA); type: biochemical; settings: read-out: topo II inh. EC50
T1 construct: Topo II was purified from late log phase suspension cultures of HeLa WIS; endogenous in cells; host or cells: HeLa WIS
T1 sequence (P11388 whole entry): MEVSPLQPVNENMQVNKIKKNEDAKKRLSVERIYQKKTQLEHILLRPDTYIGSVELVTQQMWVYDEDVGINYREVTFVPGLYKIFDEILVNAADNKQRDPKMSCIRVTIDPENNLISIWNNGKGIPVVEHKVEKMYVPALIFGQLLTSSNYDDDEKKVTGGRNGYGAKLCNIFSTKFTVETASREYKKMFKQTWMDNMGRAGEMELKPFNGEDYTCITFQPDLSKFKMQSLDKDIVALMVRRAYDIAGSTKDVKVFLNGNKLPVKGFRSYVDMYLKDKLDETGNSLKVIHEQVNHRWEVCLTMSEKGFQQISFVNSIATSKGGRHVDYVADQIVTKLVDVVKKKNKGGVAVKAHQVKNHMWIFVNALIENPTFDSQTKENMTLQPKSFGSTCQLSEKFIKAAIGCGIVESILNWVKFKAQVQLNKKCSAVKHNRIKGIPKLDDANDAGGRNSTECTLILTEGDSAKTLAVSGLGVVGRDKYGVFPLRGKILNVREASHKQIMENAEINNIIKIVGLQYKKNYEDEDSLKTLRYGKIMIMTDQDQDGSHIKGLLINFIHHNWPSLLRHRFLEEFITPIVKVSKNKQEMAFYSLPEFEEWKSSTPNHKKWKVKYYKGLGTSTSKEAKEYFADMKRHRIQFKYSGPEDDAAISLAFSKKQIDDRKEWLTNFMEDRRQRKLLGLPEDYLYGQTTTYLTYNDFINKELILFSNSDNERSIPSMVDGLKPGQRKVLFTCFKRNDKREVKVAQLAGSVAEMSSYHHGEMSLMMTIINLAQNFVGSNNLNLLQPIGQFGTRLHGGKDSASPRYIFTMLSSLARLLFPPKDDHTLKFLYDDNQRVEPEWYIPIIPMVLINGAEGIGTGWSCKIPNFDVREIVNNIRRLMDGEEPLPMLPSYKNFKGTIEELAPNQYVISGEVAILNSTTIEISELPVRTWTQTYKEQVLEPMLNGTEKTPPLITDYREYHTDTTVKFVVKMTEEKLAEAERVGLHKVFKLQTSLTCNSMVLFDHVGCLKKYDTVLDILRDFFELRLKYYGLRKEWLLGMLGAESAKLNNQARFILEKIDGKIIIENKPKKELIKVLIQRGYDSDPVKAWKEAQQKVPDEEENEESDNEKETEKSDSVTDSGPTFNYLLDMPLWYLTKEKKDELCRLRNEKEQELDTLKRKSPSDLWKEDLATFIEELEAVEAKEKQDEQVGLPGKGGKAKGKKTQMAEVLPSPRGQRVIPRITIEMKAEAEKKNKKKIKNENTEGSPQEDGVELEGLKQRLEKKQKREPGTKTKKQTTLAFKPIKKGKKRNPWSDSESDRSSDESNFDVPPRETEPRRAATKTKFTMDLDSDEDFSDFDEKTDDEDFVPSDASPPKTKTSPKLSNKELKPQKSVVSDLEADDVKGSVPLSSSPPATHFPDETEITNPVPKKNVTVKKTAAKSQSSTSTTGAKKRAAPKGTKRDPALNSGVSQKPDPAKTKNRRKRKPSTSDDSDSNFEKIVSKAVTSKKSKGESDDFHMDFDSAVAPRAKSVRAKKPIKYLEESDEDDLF
Description: The inhibition of human topoisomerase II (hereafter topo II) was quantitated by a procedure adapted from that described by Trask et al., EMBO J., 3, 671-676 (1984). The assay quantitates the amount of topo II covalently attached to DNA at equilibrium during a topo II reaction. This assay determines the potential of a compound to stabilize this complex, which potential is closely related to the cytotoxicity of the compound.
Topo II was purified from late log phase suspension cultures of HeLa WIS by an adaptation of the method described by Per et al., Mol. Pharmacol., 32, 17-25 (1987).
Assays (in duplicate) were assembled at 4° C. Assay mix (25 μl) was distributed in Beckman (No. 265270) 1.5 mL microtiter tubes followed by the addition of 5 μl test compound to yield the final concentrations of assay components:
The assay mix including the test compound was incubated for 20 minutes at 37° C. The reaction was terminated at 37° C. by the addition of 3 μl 10% SDS followed by the addition of 266 μl 10 mM Tris-Cl pH 7.5, 20 μg/ml BSA, 20 μg/ml calf thymus DNA, 1% SDS.
A SDS/protein precipitate was formed by the addition of 28 μl 2.5M KCl followed by chilling on ice for a minimum of 10 minutes. The precipitate was collected and washed with a Brandell cell harvester on a GFB glass fiber filter membrane as follows. The contents of the assay tube were drawn up into the harvester. The tube was then rinsed 7× with 10 mM Tris-Cl pH 7.5, 1 mM EDTA and 100 mM KCl. The precipitate was washed with 1 L of a solution of 10 mM Tris-Cl pH 7.5, 1 mMEDTA, 100 mM KCl followed by 1 L of 95% ethyl alcohol and finally 0.5 L 70% of ethyl alcohol (per 48 samples in each case). After drying, CPM was determined by liquid scintillation counting with 5 ml Biofluor (NEN Research Products) or Readisafe (Beckman Instruments Inc.) cocktail.
Preparation of test compound--A stock solution (6 mg/ml) of test compound was prepared either in 0.1N sodium hydroxide or 0.2N hydrogen chloride. This solution then was diluted 1/5 into water and serially thereafter in either 0.02N sodium hydroxide or 0.04N hydrogen chloride, respectively. The stock solution and serial dilution of the test compound was stored at -20° C. prior to testing.
Screening of test compound--As an initial screen, the test compound was tested at a final concentration of 2, 20 and 200 μg/ml. The compound was then retested at a range of concentrations (usually 2-3×steps) bridging their approximate EC50 's, as estimated by the prescreen.
Controls--A solvent control which indicates the base level of topo II-DNA complex formed in the absence of the test compound was included in each test. A control, in which topo II was omitted, was included for each test compound at the highest drug concentration tested.
Reference Agent--A dose response curve with mAMSA at 0.01, 0.08, 0.16, 0.32, 1.0 and 10 μg/ml was included in each test.
The maximal DNA-topo II complex formed is taken as that equal to that formed at the nearly saturating dose of mAMSA (10 μg/ml).

[1] = test system: P388 murine leukemia cells; assay: In vitro cytotoxicity, one-hour exposure, clonogenic survival of P388 cells; type: cell-based; settings: Mus musculus, read-out: in vitro cytotoxicity IC50, 1 hr exp.; P388, 1 hr exposure
Description: (§1) In vitro cytotoxicity was assayed by determining cell survival following exposure of P388 murine leukemia cells to a range of test compound concentrations. Cytotoxicity was quantitated following either a one-hour exposure or continuous exposure of P388 cells to test compound.
(§2) A Manual of Basic Technique. […] Briefly, following drug exposure cells were plated in soft agar and incubated (37°, 5% CO2) for 7-10 days during which time viable cells form visible colonies. Cytotoxicity following continuous exposure of cells to test compound was assayed by quantitating total P388 cells on a Coultier Counter following a 48-hour co-incubation of test compound with cells. P388 cells were maintained in log phase throughout the duration of cytotoxicity assays.
(§3) The percentage of cells surviving relative to an untreated control was graphed as a function of increasing drug concentration.

[2] = test system: P388 murine leukemia cells; assay: In vitro cytotoxicity, continuous (48-hour) exposure of P388 cells; type: cell-based; settings: Mus musculus; P388, continuous exposure (48-hour); read-out: in vitro cytotoxicity IC50, cont. exp.
Description: as §1, §2, §3

[3] = conc. achieving 50% of maximal effect of mAMSA, topo II from HeLa cells
[4] = footnote c: bell-shaped dose response curve noted, 50% of maximal effect of mAMSA

SMILES	EC50 (human topoisomerase II; [3]) [µM]	IC50 [1] [µM]	IC50 [2] [µM]	EC50 (human topoisomerase II) [µM]	EC50 (human topoisomerase II; [4]) [µM]
CO[C@@H]1CCCC[C@@H]1n1nc2c3cc(F)c(-c4cc(C)nc(C)c4)c(F)c3n(C3CC3)cc-2c1=O (relative stereo) [Example 45]	6.3	0.57			
Cc1cc(-c2c(F)cc3c4nn(CC(F)(F)F)c(=O)c-4cn(C4CC4)c3c2F)cc(C)n1 [Example 2]	6.8		1.4		
Cc1cc(-c2c(F)cc3c4nn(C(C)C)c(=O)c-4cn(C4CC4)c3c2F)cc(C)n1 [Example 3, 5-Cyclopropyl-6,8-difluoro-7-(2,6-dimethyl-4-pyridinyl)-2,5-dihydro-2-(2-propyl) -3H-pyrazolo[4,3-c]quinolin-3-one]	5		0.53		
CCCCn1nc2c3cc(F)c(-c4cc(C)nc(C)c4)c(F)c3n(C3CC3)cc-2c1=O [Example 4, 2-(1-Butyl)-5-cyclopropyl-6,8-difluoro-2,5-dihydro-7-(2,6-dimethyl-4-pyridinyl) -3H-pyrazolo[4,3-c]quinolin-3-one]	2.9		1.5		
Cc1cc(-c2c(F)cc3c4nn(-c5ccccc5O)c(=O)c-4cn(C4CC4)c3c2F)cc(C)n1 [Example 5, 5-Cyclopropyl-6,8-difluoro-2,5-dihydro-2-(2-hydroxyphenyl)-7-(2,6-dimethyl-4-pyridinyl) -3H-pyrazolo[4,3-c]quinolin-3-one]	1.2		0.15		
Cc1cc(-c2c(F)cc3c4nn(C)c(=O)c-4cn(C4CC4)c3c2F)cc(C)n1 [Example 7]	5.9		0.51		
Cc1cc(-c2c(F)cc3c4nn(C(C)(C)C)c(=O)c-4cn(C4CC4)c3c2F)cc(C)n1 [Example 8]	6.9		3.5		
CCOC(=O)Cn1nc2c3cc(F)c(-c4cc(C)nc(C)c4)c(F)c3n(C3CC3)cc-2c1=O [Example 9]	6.1		0.15		
Cc1cc(-c2c(F)cc3c4nn(CCO)c(=O)c-4cn(C4CC4)c3c2F)cc(C)n1 [Example 10]	6.4		1.4		
Cc1cc(-c2c(F)cc3c4nn(CCCCO)c(=O)c-4cn(C4CC4)c3c2F)cc(C)n1 [Example 11]	4.2		0.88		
COC(Cn1nc2c3cc(F)c(-c4cc(C)nc(C)c4)c(F)c3n(C3CC3)cc-2c1=O)OC [Example 12]	23				
Cc1cc(-c2c(F)cc3c4nn(CCC#N)c(=O)c-4cn(C4CC4)c3c2F)cc(C)n1 [Example 13]	6.7		1.4		
CCN(CC)CCn1nc2c3cc(F)c(-c4cc(C)nc(C)c4)c(F)c3n(C3CC3)cc-2c1=O [Example 15]		0.45		93	
Cc1cc(-c2c(F)cc3c4nn(CCN5CCCCC5)c(=O)c-4cn(C4CC4)c3c2F)cc(C)n1 [Example 19]		0.44		210	
Cc1ccc(-n2nc3c4cc(F)c(-c5cc(C)nc(C)c5)c(F)c4n(C4CC4)cc-3c2=O)cc1 [Example 24]	8.9		4.9		
Cc1cc(-c2c(F)cc3c4nn(-c5c(F)c(F)c(F)c(F)c5F)c(=O)c-4cn(C4CC4)c3c2F)cc(C)n1 [Example 25]	3.4		2.2		
COc1ccccc1-n1nc2c3cc(F)c(-c4cc(C)nc(C)c4)c(F)c3n(C3CC3)cc-2c1=O [Example 26]	5		0.34		

SMILES	EC50 (human topoisomerase II; [3]) [µM]	IC50 [1] [µM]	IC50 [2] [µM]	EC50 (human topoisomerase II) [µM]	EC50 (human topoisomerase II; [4]) [µM]
Cc1cc(-c2c(F)cc3c4nn(-c5ccc(O)cc5)c(=O)c-4cn(C4CC4)c3c2F)cc(C)n1 [Example 27]	4.9		2.6		
Cc1cc(-c2c(F)cc3c4nn(-c5cccc6ccccc56)c(=O)c-4cn(C4CC4)c3c2F)cc(C)n1 [Example 28]	2.9		0.32		
Cc1cc(-c2c(F)cc3c4nn(-c5ccccn5)c(=O)c-4cn(C4CC4)c3c2F)cc(C)n1 [Example 29]	2.8		0.74		
Cc1cc(-c2c(F)cc3c4nn(-c5ccncc5)c(=O)c-4cn(C4CC4)c3c2F)cc(C)n1 [Example 30]			1.2		8
Cc1cc(-c2c(F)cc3c4nn(Cc5ccccc5)c(=O)c-4cn(C4CC4)c3c2F)cc(C)n1 [Example 31]	3.7		0.14		
COc1ccccc1Cn1nc2c3cc(F)c(-c4cc(C)nc(C)c4)c(F)c3n(C3CC3)cc-2c1=O [Example 32]	5.1		1.2		
Cc1cc(-c2c(F)cc3c4nn(Cc5ccccc5O)c(=O)c-4cn(C4CC4)c3c2F)cc(C)n1 [Example 33]	3.8		1.4		
COc1ccc(Cn2nc3c4cc(F)c(-c5cc(C)nc(C)c5)c(F)c4n(C4CC4)cc-3c2=O)cc1 [Example 34]	3.2		0.44		
Cc1cc(-c2c(F)cc3c4nn(Cc5ccc(O)cc5)c(=O)c-4cn(C4CC4)c3c2F)cc(C)n1 [Example 35]	1.5		0.25		
COc1cc(Cn2nc3c4cc(F)c(-c5cc(C)nc(C)c5)c(F)c4n(C4CC4)cc-3c2=O)cc(OC)c1OC [Example 36]	6.4		1.2		
Cc1cc(-c2c(F)cc3c4nn(CCc5ccccc5)c(=O)c-4cn(C4CC4)c3c2F)cc(C)n1 [Example 37]	5		2.2		
COc1ccccc1CCn1nc2c3cc(F)c(-c4cc(C)nc(C)c4)c(F)c3n(C3CC3)cc-2c1=O [Example 38]	11				
Cc1cc(-c2c(F)cc3c4nn(CCc5ccccc5O)c(=O)c-4cn(C4CC4)c3c2F)cc(C)n1 [Example 39]					9.6
Cc1cc(-c2c(F)cc3c4nn(C5CCc6ccccc6C5)c(=O)c-4cn(C4CC4)c3c2F)cc(C)n1 (centres unmarked) [Example 44]	3.7		1.5		
Cc1cc(-c2c(F)cc3c4nn(C5CCC(C)CC5)c(=O)c-4cn(C4CC4)c3c2F)cc(C)n1 (centres unmarked) [Example 47]	3.1	1.4			
Cc1cc(-c2c(F)cc3c4nn(C5CCC(c6ccccc6)CC5)c(=O)c-4cn(C4CC4)c3c2F)cc(C)n1 (centres unmarked) [Example 48]	4.5	8.4			
Cc1cc(-c2c(F)cc3c4nn(CC(=O)O)c(=O)c-4cn(C4CC4)c3c2F)cc(C)n1 [Example 53, 2-[5-Cyclopropyl-6,8-difluoro-2,5-dihydro-7-(2,6-dimethyl-4-pyridinyl)-3-oxo-3H-pyrazolo[4,3-c]quinolinyl]acetic acid]	10		18		
